Drawing on patent US8455491B2, “6-cycloamino-3-(pyridazin-4-yl)imidazo[1,2-b]pyridazine and derivatives and pharmaceutical compositions comprising the same” (Sanofi, priority 2007, dated 2013), this text covers melting point and IC50 for 20 compounds.

Data set [1] addresses T1, casein kinase 1 epsilon (CK1 epsilon) (Homo sapiens, UniProt P49674).
T1 construct: Invitrogen Corporation (named as alternative)
Description: Filter-plate assay of ATP-33P, inhibition of casein phosphorylation by CK1 epsilon. The format is biochemical. Particulars: casein substrate, ATP 10 μM, 2 hours at ambient temperature. The method, then:
The capacity of the compounds of the invention to inhibit the phosphorylation of casein by casein kinase 1 epsilon and delta may be evaluated according to the procedure described in US 2005/0131012.
Filter-Plate Assay of ATP-^33P for the Screening of CK1 Epsilon Inhibitors:
The effect of the compounds on inhibition of the phosphorylation of casein by the enzyme casein kinase 1 epsilon (CK1 epsilon) is measured, using a casein assay with filtration of ATP-^33P in vitro.
Casein kinase 1 epsilon (0.58 mg/ml) is obtained via fermentation and purification processes performed according to methods that are well known to those skilled in the art, or may also be obtained from Invitrogen Corporation™ (human CK1 epsilon).
The compounds are tested at five different concentrations so as to generate IC50 values, i.e. the concentration at which a compound is capable of inhibiting the enzymatic activity by 50%, or alternatively the percentage of inhibition at a concentration of 10 micromolar.
“U”-bottomed Falcon plates are prepared by placing 5 μL of solutions of the compounds according to the invention at concentrations of 10, 1, 0.1, 0.01 or 0.001 μM in various wells. The solutions of the compounds according to the invention at these various concentrations are prepared by diluting in a test buffer (50 mM Tris, pH 7.5, […], 2 mM DTT and 1 mM EGTA) a stock solution in DMSO at a concentration of 10 mM. Next, 5 μL of dephosphorylated casein are added to a final concentration of 0.2 μg/μL, 20 μl of CK1 epsilon to a final concentration of 3 ng/μl, and 20 μl of ATP-^33P to a final concentration of 0.02 μCi/μl mixed with cold ATP (10 μM final—approximately 2×10^6 CPM per well). The final total test volume per well is equal to 50 μl.
The “U”-bottomed Falcon® test plate mentioned above is vortexed, and then incubated at ambient temperature for 2 hours. After 2 hours, the reaction is stopped by adding an ice-cold solution of 65 μl of ATP (2 mM) prepared in test buffer.
100 μl of the reaction mixture are then transferred from the “U”-bottomed Falcon® plate into Millipore® MAPH filter plates, preimpregnated with 25 μl of ice-cold 100% TCA. […]
The plates are left to dry overnight at ambient temperature. […] The radiation emitted by each well is then measured for 2 minutes in a Packard® Topcount NXT scintillation counter, in which the values of CPM/well are measured.
The percentage inhibition of the capacity of the enzyme to phosphorylate the substrate (casein) is determined for each concentration of compound tested. These inhibition data expressed as percentages are used to calculate the IC50 value for each compound compared with the controls.
The kinetic studies determined the KM value for ATP as being 21 μM in this test system.

T1 sequence (P49674 whole entry): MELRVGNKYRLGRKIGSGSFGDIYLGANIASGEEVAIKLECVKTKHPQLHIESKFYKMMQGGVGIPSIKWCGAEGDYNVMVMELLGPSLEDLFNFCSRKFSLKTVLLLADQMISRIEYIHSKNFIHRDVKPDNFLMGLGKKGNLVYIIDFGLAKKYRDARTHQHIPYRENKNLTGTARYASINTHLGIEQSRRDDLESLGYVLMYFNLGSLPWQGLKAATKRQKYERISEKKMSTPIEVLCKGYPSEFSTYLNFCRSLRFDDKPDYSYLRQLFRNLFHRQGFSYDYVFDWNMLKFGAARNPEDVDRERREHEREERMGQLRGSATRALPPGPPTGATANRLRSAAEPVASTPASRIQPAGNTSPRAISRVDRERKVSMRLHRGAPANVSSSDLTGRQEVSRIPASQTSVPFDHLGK

For the compound `FCC1CN(c2ccc3nc(-c4ccc(F)cc4)c(-c4ccnnc4)n3n2)CCN1` (racemic) [compound 40, (+/−)-6-(3-fluoromethylpiperazin-1-yl)-2-(4-fluorophenyl)-3-pyridazin-4-ylimidazo[1,2-b]pyridazine], the melting point (in general, the temperature, or range, at which the solid turns liquid) was 184 to 189 °C. On the same count and under the same terms, in the case of `CC1(C)CN(c2ccc3nc(-c4ccc(F)cc4)c(-c4ccnnc4)n3n2)CCN1` [Compound No. 3, 6-(3,3-dimethylpiperazin-1-yl)-2-(4-fluorophenyl)-3-pyridazin-4-yl-imidazo[1,2-b]pyridazine] it was 226 to 228 °C; in that of `C[C@@H]1CN(c2ccc3nc(-c4ccc(F)cc4)c(-c4ccnnc4)n3n2)C[C@H](C)N1` [compound 4, 6-(cis-3,5-dimethylpiperazin-1-yl)-2-(4-fluorophenyl)-3-pyridazin-4-yl-imidazo[1,2-b]pyridazine], 197 to 199 °C. On the same count and under the same terms, in the case of `FCCN1CCN(c2ccc3nc(-c4ccccc4)c(-c4ccnnc4)n3n2)CC1` [compound 7, 6-[4-(2-fluoroethyl)piperazin-1-yl]-2-phenyl-3-pyridazin-4-yl-imidazo[1,2-b]pyridazine] it was 156 to 158 °C. `CC(C)N1CCN(c2ccc3nc(-c4cccc(F)c4)c(-c4ccnnc4)n3n2)CC1` [compound 10, 2-(3-fluorophenyl)-6-(4-isopropylpiperazin-1-yl)-3-pyridazin-4-yl-imidazo[1,2-b]pyridazine] gave a melting point of 197 to 199 °C. Still for that read-out and setting: to `Cc1cc(C)cc(-c2nc3ccc(N4CCN(C(C)C)CC4)nn3c2-c2ccnnc2)c1` [compound 13, 2-(3,5-dimethylphenyl)-6-(4-isopropylpiperazin-1-yl)-3-pyridazin-4-yl-imidazo[1,2-b]pyridazine] belongs 183 to 184 °C. `CC(C)(O)CN1CCN(c2ccc3nc(-c4ccc(F)cc4)c(-c4ccnnc4)n3n2)CC1` [compound 20, 1-{4-[2-(4-fluorophenyl)-3-pyridazin-4-yl-imidazo[1,2-b]pyridazin-6-yl]piperazin-1-yl}-2-methylpropan-2-ol] yielded a melting point of 200 to 202 °C.

Compound `CC(C)(O)CCN1CCN(c2ccc3nc(-c4ccc(F)cc4)c(-c4ccnnc4)n3n2)CC1` [compound 21, 4-{4-[2-(4-fluorophenyl)-3-pyridazin-4-yl-imidazo[1,2-b]pyridazin-6-yl]piperazin-1-yl}-2-methylbutan-2-ol] had a melting point of 148 to 150 °C. For the same compound, the IC50 – broadly, the midpoint of a concentration-inhibition curve – in data set [1] fell in the range of 134 to 166 nM.

In the case of `Fc1ccc(-c2nc3ccc(N4C[C@@H]5C[C@H]4CN5)nn3c2-c2ccnnc2)cc1` [compound 23, 6-((1S,4S)-2,5-diazabicyclo[2.2.1]hept-2-yl)-2-(4-fluorophenyl)-3-pyridazin-4-yl-imidazo[1,2-b]pyridazine], the melting point lay in the range of 205 to 207 °C. For the compound `OCCN1C[C@@H]2C[C@H]1CN2c1ccc2nc(-c3ccc(F)cc3)c(-c3ccnnc3)n2n1` [compound 24, 2-{5-[2-(4-fluorophenyl)-3-pyridazin-4-yl-imidazo[1,2-b]pyridazin-6-yl]-(1S,4S)-2,5-diazabicyclo[2.2.1]hept-2-yl}-ethanol], the melting point fell in the range of 175 to 177 °C. Still for that read-out and setting: in the case of `CC(C)N1C[C@@H]2C[C@H]1CN2c1ccc2nc(-c3ccc(F)cc3)c(-c3ccnnc3)n2n1` [compound 25, 2-(4-fluorophenyl)-6-(5-isopropyl-(1S,4S)-2,5-diazabicyclo[2.2.1]hept-2-yl)-3-pyridazin-4-yl-imidazo[1,2-b]pyridazine] it was 201 to 203 °C.

With `CC(C)N1CC2CN(c3ccc4nc(-c5ccc(F)cc5)c(-c5ccnnc5)n4n3)CC2C1` (stereo not drawn) [compound 28, 2-(4-fluorophenyl)-6-(5-isopropylhexahydropyrrolo[3,4-c]pyrrol-2-(1H)-yl)-3-pyridazin-4-yl-imidazo[1,2-b]pyridazine], in data set [1], the half-maximal inhibitory concentration (IC50) lay in the range of 54 to 69 nM.

In the case of `Fc1ccc(-c2nc3ccc(N4CCC5(CCCNC5)CC4)nn3c2-c2ccnnc2)cc1` [compound 31, 9-[2-(4-fluorophenyl)-3-pyridazin-4-yl-imidazo[1,2-b]pyridazin-6-yl]-2,9-diaza-spiro[5.5]undecane], the melting point lay in the range of 203 to 205 °C.

`Fc1ccc(-c2nc3ccc(N4CCC5(CC4)CNCCO5)nn3c2-c2ccnnc2)cc1` [compound 32, 9-[2-(4-fluorophenyl)-3-pyridazin-4-yl-imidazo[1,2-b]pyridazin-6-yl]-1-oxa-4,9-diaza-spiro[5.5]undecane] yielded a melting point of 212 to 214 °C. On the same count and under the same terms, in the case of `Fc1ccc(-c2nc3ccc(N4CCC(N5CCCC5)C4)nn3c2-c2ccnnc2)cc1` (stereo not drawn) [compound 33, 6-[1,3]bipyrrolidinyl-1′-yl-2-(4-fluorophenyl)-3-pyridazin-4-yl-imidazo[1,2-b]pyridazine] it was 182 to 184 °C; in that of `Fc1ccc(-c2nc3ccc(N4CCC(N5CCCC5)CC4)nn3c2-c2ccnnc2)cc1` [compound 34, 2-(4-fluorophenyl)-3-pyridazin-4-yl-6-(4-pyrrolidin-1-yl-piperidin-1-yl)-imidazo[1,2-b]pyridazine], 196 to 198 °C.

`CN1CC2CN(c3ccc4nc(-c5ccccc5)c(-c5ccnnc5)n4n3)CC2C1` (stereo not drawn) [compound 41, 6-(5-methylhexahydropyrrolo[3,4-c]pyrrol-2(1H)-yl)-2-phenyl-3-pyridazin-4-ylimidazo[1,2-b]pyridazine] showed a melting point of 154 to 157 °C. Compound `CN1CC2CN(c3ccc4nc(-c5cccc(F)c5)c(-c5ccnnc5)n4n3)CC2C1` (stereo not drawn) [compound 42, 2-(3-fluorophenyl)-6-(5-methylhexahydropyrrolo[3,4-c]pyrrol-2(1H)-yl)-3-pyridazin-4-ylimidazo[1,2-b]pyridazine] displayed a melting point of 168 to 170 °C. The same measure, in the same setting: to `Cc1cc(N2CC3CN(C)CC3C2)nn2c(-c3ccnnc3)c(-c3ccc(F)cc3)nc12` (stereo not drawn) [compound 44, 2-(4-fluorophenyl)-8-methyl-6-(5-methylhexahydropyrrolo[3,4-c]pyrrol-2(1H)-yl)-3-pyridazin-4-ylimidazo[1,2-b]pyridazine] belongs 255 to 257 °C. `CN1CC2CN(c3ccc4nc(-c5ccc(F)c(F)c5)c(-c5ccnnc5)n4n3)CC2C1` (stereo not drawn) [compound 45, 2-(3,4-difluorophenyl)-6-(5-methylhexahydropyrrolo[3,4-c]pyrrol-2(1H)-yl)-3-pyridazin-4-ylimidazo[1,2-b]pyridazine] showed a melting point of 186 to 188 °C.
